Data reported in US8883793B2, “Tubulin inhibitors and methods of using the same” (Development Center for Biotechnology, priority 2010, dated 2014).

Columns and labels:
KB cell = assay: MTS assay, growth inhibition of KB cells; assay type: cell-based; details: Homo sapiens, at 10 μM concentration, incubated for 72 h, read-out: Inhibition rate (%) (growth inhibition rate of MTS assay)
Experimental: MTS assay was performed in determining the growth inhibition of cancer cells. MTS ((3-(4,5-dimethylthiazol-2-yl)-5-(3-carboxymethoxyphenyl)-2-(4-sulfophenyl)-2H-tetrazolium)), in the presence of phenazine methosulfate (PMS) and reductases, produces a formazan product that has an absorbance maximum at 490-500 nm. MTS assays (and closely related MTT assay) are commonly used to measure cell viabilities or survivals.
Briefly, KB/Hela, NCI-H460, A375, Colo205, HCT-116, U937, MCF-7, MDA-MB-231, A549, H1975 cells were seeded into 96-well plate at 4000, 4000, 2000, 2000, 2000 cells/well. After 24 h for attachment, test compound was added into each well and incubated for 72 h. A total of 20 μl of MTS reaction reagent containing the MTS (Promega, Madison, Wis.) and PMS in a ratio of 20:1 was added into each well to react with dehydrogenase enzyme in survival cells. After 3 h, the absorbance at 490 nm was monitored using Emax precision microplate reader (Molecular Devices, Sunnyvale, Calif.).
The growth inhibition rate of MTS assay at KB cell of these compounds (at 10 μM concentration) are list in Table 5.

biotinylated tubulin = assay: Colchicine competitive-binding assay; details: at 10 μM concentration, 3H-colchicine; for binding rate (%) (colchicine competitive-binding): left column pair of Table 7; for Inhibition rate (%) (colchicine competitive-binding): right column pair of Table 7
Experimental: The colchicine competitive-binding assay was done by using the Colchicine Site competitive Assay Kit (Cytoskeleton, Inc.), streptavidin-coated yttrium SPA beads(GE Healthcare, Inc.), and ^3H-colchicine(PerkinElmer, Inc.). Briefly, the binding mixture includes 1 μL^3H-labeled ligand (specific activity […]), and 1 μg biotinylated tubulin and 88 μg SPA beads in 200 μL assay buffer. The test compound and ^3H-labeled ligand were added before tubulin. After incubation at 37° C. for 2 hours, the SPA beads were allowed to settle down for 24 hours at room temperature, and scintillation counting was done on the TopCount Microplate Scintillation Counter.

## COc1ccc(Cc2cnc(NC(=O)CCc3ccc(F)cc3)s2)c(OC)c1OC [Compound 54, 3-(4-Fluoro-phenyl)-N-[5-(2,3,4-trimethoxy-benzyl)-thiazol-2-yl]-propionamide]
KB cell
  inhibition at 10 µM: 96.1%
Biotinylated tubulin
  binding rate (%) (colchicine competitive-binding): 73.3%

## COc1ccc(Cc2cnc(NC(=O)CCc3ccc(C)o3)s2)c(OC)c1OC [Compound 56, 3-(5-Methyl-furan-2-yl)-N-[5-(2,3,4-trimethoxy-benzyl)-thiazol-2-yl]-propionamide]
KB cell
  inhibition at 10 µM: 94.7%
Biotinylated tubulin
  binding rate (%) (colchicine competitive-binding): 88.3%

## Cc1nc(NC(=O)CCc2ccccc2)sc1-c1ccc(F)cc1 [Compound 59, N-[5-(4-Fluoro-phenyl)-4-methyl-thiazol-2-yl]-3-phenyl-propionamide]
KB cell
  inhibition at 10 µM: 93.5%
Biotinylated tubulin
  binding rate (%) (colchicine competitive-binding): 76.3%

## Cc1nc(NC(=O)CCc2ccccc2)sc1Cc1ccc2c(c1)OCO2 [Compound 60, N-(5-Benzo[1,3]dioxol-5-ylmethyl-4-methyl-thiazol-2-yl)-3-phenyl-propionamide]
KB cell
  inhibition at 10 µM: 95.1%
Biotinylated tubulin
  binding rate (%) (colchicine competitive-binding): 64.6%

## Cc1nc(NC(=O)CCc2ccc(F)cc2)sc1Cc1ccc2c(c1)OCO2 [Compound 61, N-(5-Benzo[1,3]dioxol-5-ylmethyl-4-methyl-thiazol-2-yl)-3-(4-fluoro-phenyl)-propionamide]
KB cell
  inhibition at 10 µM: 90.9%
Biotinylated tubulin
  binding rate (%) (colchicine competitive-binding): 57.9%

## Cc1nc(NC(=O)CCc2cccnc2)sc1Cc1ccc2c(c1)OCO2 [Compound 62, N-(5-Benzo[1,3]dioxol-5-ylmethyl-4-methyl-thiazol-2-yl)-3-pyridin-3-yl-propionamide]
KB cell
  inhibition at 10 µM: 96%
Biotinylated tubulin
  binding rate (%) (colchicine competitive-binding): 55.3%

## COc1cccc(CCC(=O)Nc2nc(C)c(Cc3ccc4c(c3)OCO4)s2)c1 [Compound 63, N-(5-Benzo[1,3]dioxol-5-ylmethyl-4-methyl-thiazol-2-yl)-3-(3-methoxy-phenyl)-propionamide]
KB cell
  inhibition at 10 µM: 95.6%
Biotinylated tubulin
  binding rate (%) (colchicine competitive-binding): 63.3%

## Cc1ccc(CCC(=O)Nc2ncc(Oc3ccc(F)cc3)s2)o1 [Compound 64, N-[5-(4-Fluoro-phenoxy)-thiazol-2-yl]-3-(5-methyl-furan-2-yl)-propionamide]
KB cell
  inhibition at 10 µM: 95.9%
Biotinylated tubulin
  binding rate (%) (colchicine competitive-binding): 54.4%

## O=C(CCc1ccccc1)Nc1ccc(Sc2ccccc2)cn1 [Compound 81, 3-Phenyl-N-(5-phenylsulfanyl-pyridin-2-yl)-propionamide]
KB cell
  inhibition at 10 µM: 95.1%
Biotinylated tubulin
  Inhibition rate (%) (colchicine competitive-binding): 70.0%

## Cc1ccc(CCC(=O)Nc2ncc(-n3ccnc3)cc2C)o1 [Compound 87, N-(5-Imidazol-1-yl-3-methyl-pyridin-2-yl)-3-(5-methyl-furan-2-yl)-propionamide]
KB cell
  inhibition at 10 µM: 93.9%
Biotinylated tubulin
  Inhibition rate (%) (colchicine competitive-binding): 54.6%

## O=C(/C=C/c1ccccc1)Nc1ncc(-c2ccccc2)cn1 [Compound 93, 3-Phenyl-N-(5-phenyl-pyrimidin-2-yl)-acrylamide]
KB cell
  inhibition at 10 µM: 96%
Biotinylated tubulin
  Inhibition rate (%) (colchicine competitive-binding): 57.2%

## O=C(/C=C/c1ccccc1)Nc1ncc(-c2ccc(F)cc2)cn1 [Compound 98, N-[5-(4-Fluoro-phenyl)-pyrimidin-2-yl]-3-phenyl-acrylamide]
KB cell
  inhibition at 10 µM: 81.9%
Biotinylated tubulin
  Inhibition rate (%) (colchicine competitive-binding): 57.5%

## COc1cccc(-c2cnc(NC(=O)/C=C/c3ccccc3)nc2)c1OC [Compound 101, N-[5-(2,3-Dimethoxy-phenyl)-pyrimidin-2-yl]-3-phenyl-acrylamide]
KB cell
  inhibition at 10 µM: 97.5%
Biotinylated tubulin
  Inhibition rate (%) (colchicine competitive-binding): 56.9%

## Cc1ccc(CCC(=O)Nc2ncc(-c3cccc4ccccc34)cn2)o1 [Compound 103, 3-(5-Methyl-furan-2-yl)-N-(5-naphthalen-1-yl-pyrimidin-2-yl)-propionamide]
KB cell
  inhibition at 10 µM: 94.1%
Biotinylated tubulin
  Inhibition rate (%) (colchicine competitive-binding): 81.1%

## O=C(CCc1ccccc1)Nc1ncc(-c2cccc3ccccc23)cn1 [Compound 104, N-(5-Naphthalen-1-yl-pyrimidin-2-yl)-3-phenyl-propionamide]
KB cell
  inhibition at 10 µM: 96.6%
Biotinylated tubulin
  Inhibition rate (%) (colchicine competitive-binding): 61.3%
